Test results as given in PubChem BioAssay AID192 (DTP/NCI, 2004).
Where “and” joins values, the source holds several entries; their conditions need not be identical. Equal entries are not always repeated. Toxic doses and inconclusive results are not listed.

Test system: BDF1 mice, B16 melanoma ip, median survival T/C
Test: NCI In Vivo Anticancer Drug Screen. Data for tumor model B16 Melanoma (intraperitoneal) in B6D2F1 (BDF1) mice
Conditions: endpoint: median survival time, higher = longer survival
Method in brief: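 Compounds were tested in mice carrying transplantable tumors. Survival or tumor size was recorded, and each value is the treated-group measurement (T) divided by that of the vehicle-treated control group (C).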

[1] = dose: 6.25 mg/kg/injection, schedule: Q01DX009 (ip), vehicle: saline
[2] = dose: 12.5 mg/kg/injection, schedule: Q01DX009 (ip), vehicle: saline

For CC(C)NCC(O)COc1cccc2ccccc12 (stereo unspecified), the T/C (dose: 4.0 mg/kg/injection, schedule: Q01DX009 (ip), vehicle: Klucel (hydroxypropylcellulose) (HPC)) was 99 % of control and 112 % of control, the T/C (dose: 8.0 mg/kg/injection, schedule: Q01DX009 (ip), vehicle: Klucel (hydroxypropylcellulose) (HPC)) was 101 % of control and the T/C (dose: 16.0 mg/kg/injection, schedule: Q01DX009 (ip), vehicle: Klucel (hydroxypropylcellulose) (HPC)) was 98 % of control and 108 % of control. For the same compound, the T/C (dose: 32.0 mg/kg/injection, schedule: Q01DX009 (ip), vehicle: Klucel (hydroxypropylcellulose) (HPC)) was 91 % of control and 95 % of control and the T/C (dose: 64.0 mg/kg/injection, schedule: Q01DX009 (ip), vehicle: Klucel (hydroxypropylcellulose) (HPC)) was 97 % of control and 101 % of control.
With COC1CC(CC2CCC(C)C(C(C)C(=O)O)O2)OC2(OC(C)(C3CCC(C)(C4OC(C5OC(O)(CO)C(C)CC5C)CC4C)O3)CC2C)C1C (stereo unspecified) the T/C (dose: 0.31 mg/kg/injection, schedule: Q01DX009 (ip), vehicle: Klucel (hydroxypropylcellulose) (HPC)) was 102 % of control, the T/C (dose: 0.63 mg/kg/injection, schedule: Q01DX009 (ip), vehicle: Klucel (hydroxypropylcellulose) (HPC)) was 89 % of control and the T/C (dose: 1.25 mg/kg/injection, schedule: Q01DX009 (ip), vehicle: Klucel (hydroxypropylcellulose) (HPC)) was 92 % of control. The T/C (dose: 2.5 mg/kg/injection, schedule: Q01DX009 (ip), vehicle: Klucel (hydroxypropylcellulose) (HPC)) was 92 % of control.
In the case of C/C(=N/O)[c-]1[c-][c-][c-][c-]1.[Fe].[c-]1[c-][c-][cH-][c-]1, the T/C (dose: 3.13 mg/kg/injection, schedule: Q01DX009 (ip), vehicle: saline with Tween-80) is reported as 91 % of control, the T/C (dose: 3.13 mg/kg/injection, schedule: Q04DX003 (ip), vehicle: saline with Tween-80) is reported as 98 % of control and the T/C (dose: 6.25 mg/kg/injection, schedule: Q01DX009 (ip), vehicle: saline with Tween-80) is reported as 100 % of control. For the same compound, the T/C (dose: 6.25 mg/kg/injection, schedule: Q04DX003 (ip), vehicle: saline with Tween-80) was 96 % of control, the T/C (dose: 12.5 mg/kg/injection, schedule: Q01DX009 (ip), vehicle: saline with Tween-80) was 97 % of control and the T/C (dose: 12.5 mg/kg/injection, schedule: Q04DX003 (ip), vehicle: saline with Tween-80) was 94 % of control.
With C=CCN(CC=C)CCN(CC)CC the T/C [1] was 93 % of control, the T/C [2] was 94 % of control and the T/C (dose: 25.0 mg/kg/injection, schedule: Q01DX009 (ip), vehicle: saline) was 94 % of control. The T/C (dose: 50.0 mg/kg/injection, schedule: Q01DX009 (ip), vehicle: saline) was 91 % of control.
CC1=C(C)C(=O)O[C@@H]([C@](C)(O)[C@]2(O)CC[C@@]3(O)[C@@H]4C[C@H]5O[C@]56[C@@H](O)C=CC(=O)[C@]6(C)[C@H]4CC[C@]23C)C1 was tested, and the T/C (dose: 2.0 mg/kg/injection, schedule: Q01DX005 (ip), vehicle: saline + alcohol) was 117 % of control, the T/C (dose: 2.0 mg/kg/injection, schedule: Q01DX005 (iv), vehicle: saline + alcohol) was 99 % of control and the T/C (dose: 4.0 mg/kg/injection, schedule: Q01DX001 (ip), vehicle: saline + alcohol) was 113 % of control. For the same compound, the T/C (dose: 4.0 mg/kg/injection, schedule: Q01DX001 (iv), vehicle: saline + alcohol) was 103 % of control, the T/C (dose: 4.0 mg/kg/injection, schedule: Q01DX005 (iv), vehicle: saline + alcohol) was 97 % of control and the T/C (dose: 4.0 mg/kg/injection, schedule: Q01DX005 (oral), vehicle: saline + alcohol) was 103 % of control. The T/C (dose: 4.0 mg/kg/injection, schedule: Q01DX009 (oral), vehicle: saline + alcohol) was 90 % of control, the T/C (dose: 8.0 mg/kg/injection, schedule: Q01DX001 (ip), vehicle: saline + alcohol) was 113 % of control and the T/C (dose: 8.0 mg/kg/injection, schedule: Q01DX001 (iv), vehicle: saline + alcohol) was 114 % of control. The T/C (dose: 8.0 mg/kg/injection, schedule: Q01DX001 (oral), vehicle: saline + alcohol) was 97 % of control, the T/C (dose: 8.0 mg/kg/injection, schedule: Q01DX005 (iv), vehicle: saline + alcohol) was 95 % of control and the T/C (dose: 8.0 mg/kg/injection, schedule: Q01DX005 (oral), vehicle: saline + alcohol) was 103 % of control. The T/C (dose: 8.0 mg/kg/injection, schedule: Q01DX009 (oral), vehicle: saline + alcohol) was 95 % of control, the T/C (dose: 16.0 mg/kg/injection, schedule: Q01DX001 (iv), vehicle: saline + alcohol) was 92 % of control and the T/C (dose: 16.0 mg/kg/injection, schedule: Q01DX001 (oral), vehicle: saline + alcohol) was 99 % of control. For the same compound, the T/C (dose: 16.0 mg/kg/injection, schedule: Q01DX005 (ip), vehicle: saline + alcohol) was 116 % of control, the T/C (dose: 16.0 mg/kg/injection, schedule: Q01DX005 (iv), vehicle: saline + alcohol) was 92 % of control and the T/C (dose: 16.0 mg/kg/injection, schedule: Q01DX005 (oral), vehicle: saline + alcohol) was 104 % of control. For the same compound, the T/C (dose: 16.0 mg/kg/injection, schedule: Q01DX009 (oral), vehicle: saline + alcohol) was 94 % of control, the T/C (dose: 32.0 mg/kg/injection, schedule: Q01DX001 (ip), vehicle: saline + alcohol) was 116 % of control and the T/C (dose: 32.0 mg/kg/injection, schedule: Q01DX001 (iv), vehicle: saline + alcohol) was 101 % of control. The T/C (dose: 32.0 mg/kg/injection, schedule: Q01DX001 (oral), vehicle: saline + alcohol) was 103 % of control, the T/C (dose: 32.0 mg/kg/injection, schedule: Q01DX005 (iv), vehicle: saline + alcohol) was 99 % of control and the T/C (dose: 32.0 mg/kg/injection, schedule: Q01DX005 (oral), vehicle: saline + alcohol) was 90 % of control. The T/C (dose: 32.0 mg/kg/injection, schedule: Q01DX009 (oral), vehicle: saline + alcohol) was 104 % of control, the T/C (dose: 64.0 mg/kg/injection, schedule: Q01DX001 (iv), vehicle: saline + alcohol) was 105 % of control and the T/C (dose: 64.0 mg/kg/injection, schedule: Q01DX001 (oral), vehicle: saline + alcohol) was 101 % of control. For the same compound, the T/C (dose: 64.0 mg/kg/injection, schedule: Q01DX005 (oral), vehicle: saline + alcohol) was 97 % of control, the T/C (dose: 64.0 mg/kg/injection, schedule: Q01DX009 (oral), vehicle: saline + alcohol) was 101 % of control and the T/C (dose: 128.0 mg/kg/injection, schedule: Q01DX001 (oral), vehicle: saline + alcohol) was 105 % of control.
With O=NNc1cnccn1 the T/C (dose: 25.0 mg/kg/injection, schedule: Q01DX009 (ip), vehicle: water) was 164 % of control.
O=NN(CCCl)C(=O)NC1[C@H](O)CCC[C@@H]1O (stereo partly specified) was tested, and the T/C (dose: 0.63 mg/kg/injection, schedule: Q01DX009 (ip), vehicle: saline) was 159 % of control, the T/C (dose: 1.25 mg/kg/injection, schedule: Q01DX009 (ip), vehicle: saline) was 208 % of control and the T/C (dose: 2.5 mg/kg/injection, schedule: Q01DX009 (ip), vehicle: saline) was 295 % of control. The T/C (dose: 5.0 mg/kg/injection, schedule: Q01DX009 (ip), vehicle: saline) was 295 % of control.
Cc1cc(C)c(C(=O)CC(=O)c2cccnc2)c(C)c1 was tested, and the T/C (dose: 100.0 mg/kg/injection, schedule: Q01DX009 (ip), vehicle: saline + Tween-80 + alcohol) was 98 % of control and the T/C (dose: 200.0 mg/kg/injection, schedule: Q01DX009 (ip), vehicle: saline + Tween-80 + alcohol) was 91 % of control.
In the case of C1CC2(CCN1)SSC1(CCNCC1)S2, the T/C (dose: 100.0 mg/kg/injection, schedule: Q04DX003 (ip), vehicle: saline) is reported as 100 % of control and the T/C (dose: 200.0 mg/kg/injection, schedule: Q04DX003 (ip), vehicle: saline) is reported as 100 % of control.
With CN(C)CCOC(c1ccccc1)c1ccccc1 the T/C (dose: 3.12 mg/kg/injection, schedule: Q01DX009 (ip), vehicle: saline) was 86 % of control, the T/C [1] was 100 % of control and the T/C [2] was 100 % of control.
For CSc1nc(C)cc(Cl)n1, the T/C (dose: 50.0 mg/kg/injection, schedule: Q01DX009 (ip), vehicle: saline with Tween-80) was 104 % of control, the T/C (dose: 100.0 mg/kg/injection, schedule: Q01DX009 (ip), vehicle: saline with Tween-80) was 113 % of control and the T/C (dose: 200.0 mg/kg/injection, schedule: Q01DX009 (ip), vehicle: saline with Tween-80) was 90 % of control.
C=CCNC(=S)Nc1ccc(C)cc1 was tested, and the T/C (dose: 50.0 mg/kg/injection, schedule: Q01DX009 (ip), vehicle: Klucel (hydroxypropylcellulose) (HPC)) was 100 % of control, the T/C (dose: 100.0 mg/kg/injection, schedule: Q01DX009 (ip), vehicle: Klucel (hydroxypropylcellulose) (HPC)) was 93 % of control and the T/C (dose: 200.0 mg/kg/injection, schedule: Q01DX009 (ip), vehicle: Klucel (hydroxypropylcellulose) (HPC)) was 90 % of control.
O=[N+]([O-])c1ccc(C(O)C=C(C(F)(F)F)C(F)(F)F)cc1 (stereo unspecified) was tested, and the T/C (dose: 12.5 mg/kg/injection, schedule: Q01DX009 (ip), vehicle: Klucel (hydroxypropylcellulose) (HPC)) was 93 % of control and the T/C (dose: 25.0 mg/kg/injection, schedule: Q01DX009 (ip), vehicle: Klucel (hydroxypropylcellulose) (HPC)) was 89 % of control.
In the case of O=[As](O)(O)c1ccc(Nc2nc(Cl)nc(Cl)n2)cc1, the T/C (dose: 3.13 mg/kg/injection, schedule: Q01DX009 (ip), vehicle: Klucel (hydroxypropylcellulose) (HPC)) is reported as 100 % of control and the T/C (dose: 6.25 mg/kg/injection, schedule: Q01DX009 (ip), vehicle: Klucel (hydroxypropylcellulose) (HPC)) is reported as 110 % of control.
